In patent US20170112714A1, “METHOD FOR ALLEVIATING OR TREATING ANAPHYLAXIS” (Korea Bio Medical Science Institute, priority 2015, published 2017):

What was measured:
Format in all cases: in vivo
[1] = tested on: TNF-α; test: TNF-α protein levels in brain by ELISA; settings: ketotifen in compound 48/80 mice
Method: (§1) Mice were given an intraperitoneal (i.p.) injection of compound 48/80 (6.5 mg/kg). The period used to observe mortality was based on the results of a pretest during which mice died within 30 min of administration. […] Mortality was monitored for 40 min post-injection. […] Three independent experiments were performed (n=15/group).
Cytokines levels in serum and brain were analyzed by ELISA, as described previously. Cytokine levels in brain were divided according to the total protein levels, which were estimated using a BCA protein assay kit (Pierce, Rockford, Ill., USA).

[2] = tested on: HIF-1α; test: HIF-1α protein levels in brain by Western blotting; settings: oral ketotifen in compound 48/80 mice, p<0.05; FIG. 3 (protein and mRNA)
Method: as §1
Western blot analysis was performed on brain tissue extracts, as previously described in (Semenza GL: Hypoxia-inducible factor 1: oxygen homeostasis and disease pathophysiology. Trends Mol Med 2001; 7:345-350).

[3] = tested on: mice; test: Compound 48/80-induced systemic anaphylaxis, mortality; settings: ketotifen orally 1 mg/kg 1 h before compound 48/80 (6.5 mg/kg i.p.); vs compound 48/80 alone, p<0.01
Method: The original stock of male ICR (4 weeks old) was purchased from the Dae-Han Experimental Animal Center (Eumsung, Chungbuk, Republic of Korea). Animal care and experimental procedures used were approved by the Animal Care Committee of Kyung Hee University [KHUASP (SE)-12-019].
as §1
Jajinmori-jangdan and Hwimori-jangdan (rhythmic cycles) of Buk music were played by Kyung-Ja Ko. The playing conditions were as follows: Jajinmori-jangdan rhythmic cycle of twelve beats, […] (12/8 metre, ? =96 to 144), in an allegro moderated tempo and Hwimori-jangdan rhythmic cycle of 4 beats, 2+2 (4/4 metre, ? =208 to 230), in a presto tempo. The sound of a Buk is a match for the frequency of a baritone voice (139.9 to 355.2 Hz). […] Mice were exposed to Buk music or white noise for 5 min. All experiments were carried out in an environment free of other sounds. Buk music was recorded and copied using a MP3 player to ensure precisely the same music was played for mice in all treatment groups.

[4] = tested on: VEGF mRNA; test: VEGF mRNA levels in brain by quantitative real-time PCR; settings: ketotifen in compound 48/80 mice, p<0.05
Method: as §1
Quantitative real-time PCR was performed using SYBR Green master mix and mRNA levels were analyzed using an ABI StepOne real time PCR System (Applied Biosystems, Foster City, Calif., USA). Primer sequences for the reference gene GAPDH and genes of interest were as follows: GAPDH (5′ […] 3′, SEQ ID NO.1; 5′ […] 3′, SEQ ID NO.2); HIF-1α (5′ […] 3′, SEQ ID NO.3; 5′ […] 3′, SEQ ID NO.4); VEGF (5′ […] 3′, SEQ ID NO.5; 5′ […] 3′, SEQ ID NO.6). Typical profile times used were as follows; initial step 95° C. for 10 min followed by a second step at 95° C. for 15 s and 60° C. for 30 s for 40 cycles. Levels of target mRNAs were normalized versus GAPDH. Data were analyzed using the ΔΔCT method.

[5] = tested on: ER-β mRNA; test: ER-β mRNA levels in brain by quantitative real-time PCR; settings: ketotifen in compound 48/80 administered mice, p<0.05

## CN1CCC(=C2c3ccccc3CC(=O)c3sccc32)CC1 [ketotifen]
[1]
  TNF-α protein levels in brain: significantly reduced
[2]
  HIF-1α levels in brain: significantly reduced
[3]
  mortality induced by compound 48/80: reduced mortality
[4]
  brain VEGF mRNA levels: significantly reduced
[5]
  ER-β mRNA levels in brain: significantly increased
